Our source for the IC50 and inhibition values is patent US20070197590A1, “SUBSTITUTED DIPIPERIDINE CCR2 ANTAGONISTS” (priority 2006, published 2007).

The target of one experiment is T1, CCR2 (Homo sapiens, UniProt P41597).
T1 construct: host or cells: THP-1 cells
T1 sequence (P41597 1-360 isoform P41597-2): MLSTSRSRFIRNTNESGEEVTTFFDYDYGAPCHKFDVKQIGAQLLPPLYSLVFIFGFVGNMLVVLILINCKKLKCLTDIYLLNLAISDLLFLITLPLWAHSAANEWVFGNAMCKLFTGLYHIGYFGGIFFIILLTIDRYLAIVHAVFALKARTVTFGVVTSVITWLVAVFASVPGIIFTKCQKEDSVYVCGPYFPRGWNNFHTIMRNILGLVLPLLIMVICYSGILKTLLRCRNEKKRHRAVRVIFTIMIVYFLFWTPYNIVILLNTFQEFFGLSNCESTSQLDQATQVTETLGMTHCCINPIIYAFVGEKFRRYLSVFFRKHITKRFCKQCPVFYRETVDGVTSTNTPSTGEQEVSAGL
Kind of experiment: MCP-1 Receptor Binding Assay in THP-1 Cells. Particulars: for IC50: THP-1 cells, 0.5 nM 125I labeled MCP-1, 2 hours at 30° C., read-out: Inhibition of MCP-1 Binding IC50; for inhibition at 25 µM: test concentration of 25 μM, given where an IC50 value was not obtained, read-out: Inhibition of MCP-1 Binding, percent inhibition. How it is done:
THP-1 cells were obtained from American Type Culture Collection (Manassas, Va., USA). The THP-1 cells were grown in RPMI-1640 supplemented with 10% fetal bovine serum in a humidified 5% CO2 atmosphere at 37° C. The cell density was maintained […].
THP-1 cells were incubated with 0.5 nM ^125, labeled MCP-1 (Perkin-Elmer Life Sciences, Inc. Boston, Mass.) in the presence of varying concentrations of either unlabeled MCP-1 (R & D Systems, Minneapolis, Minn.) or test compound for 2 hours at 30° C. in a 96 well plate. Cells were then harvested onto a filter plate, dried, and 20 μL of Microscint 20 was added to each well. Plates were counted in a TopCount NXT, Microplate Scintillation & Luminescence Counter (Perkin-Elmer Life Sciences, Inc. Boston, Mass.). Blank values (buffer only) were subtracted from all values and drug treated values were compared to vehicle treated values. 1 μM cold MCP-1 was used for nonspecific binding.
Table 1 lists IC50 values for inhibition of MCP-1 binding to CCR2 obtained for test compounds of the invention.

In experiment [1] the test system is MCP-1 induced calcium ion influx in THP-1 cells. As to the kind of experiment: MCP-1 Induced Calcium Mobilization in THP-1 Cells. The format is cell-based. As to conditions: for IC50: 0.2 μM MCP-1, FLIPR, read-out: Inhibition of MCP-1 Induced Calcium Ion Influx IC50. How it is done: THP-1 cells were plated at a density of 8×10^5 cells/mL (100 μL/well) into poly-D lysine coated clear bottom, black 96 well plates. The cells were loaded with 5 μM fluo-3 for 45 minutes. The fluo-3 washed off and cells were incubated with varying concentrations of test compound for 15 minutes. The change in calcium ion concentration upon addition of 0.2 μM MCP-1 was determined using FLIPR and compared to vehicle.
Table 2 lists IC50 values for inhibition of MCP-1 induced influx of calcium ions.

Setting [2] is: Homo sapiens, THP-1, THP-1 cells.

Read-outs that look alike come from different tables or passages of the source.

Consider “4-hydroxy-4-{1-hydroxy-2-hydroxy-2-[4-(1H-indol-3-yl)-piperidin-1-yl]-ethyl}-piperidine-1-carboxylic acid (3,5-difluoro-phenyl)-amide [Compound 81]”, for which the figures for the IC50 (at CCR2; in experiment [1] (THP-1 cells)) were 2.6 µM and 1.8 µM, respectively.
In the case of `COc1ccc(C2CCN(CC(CO)C3CCN(C(=O)/C=C/c4cccc(C)c4)CC3)CC2)cc1` (centres unmarked) [Compound 42], the figures for the IC50 (on CCR2; in experiment [1] (setting [2])) were 2.2 µM and 3.7 µM, respectively.
For `COc1ccc(C2CCN(CC(CO)C3CCN(C(=O)Nc4ccc(Cl)c(Cl)c4)CC3)CC2)cc1` (centres unmarked) [Compound 44, 4-{1-hydroxymethyl-2-[4-(4-methoxy-phenyl)-piperidin-1-yl]-ethyl}-piperidine-1-carboxylic acid (3,4-dichloro-phenyl)-amide], the IC50 at CCR2 came out at 1.8 µM; in experiment [1] (setting [2]) it was 0.72 µM.
In the case of `O=C(Nc1ccc(Cl)c(Cl)c1)N1CCC(CC(CO)N2CCC(c3c[nH]c4ccccc34)CC2)CC1` (centres unmarked) [Compound 58, 4-{3-hydroxy-2-[4-(1H-indol-3-yl)-piperidin-1-yl]-propyl}-piperidine-1-carboxylic acid (3,4-dichloro-phenyl)-amide], the IC50 on CCR2 came out at 5 µM. Also, the inhibition at 25 µM in experiment [1] (Homo sapiens, THP-1, test concentration of 25 μM, given where an IC50 value was not obtained, read-out: Inhibition of MCP-1 Induced Calcium Ion Influx, percent inhibition) turned out to be 42%.
In the case of `COc1ccc(C2CCN(CC(NC(C)=O)C3CCN(C(=O)C=Cc4cc(F)c(F)c(F)c4)CC3)CC2)cc1` (centres unmarked) [Compound 66, N-(2-[4-(4-methoxy-phenyl)-piperidin-1-yl]-1-{1-[3-(3,4,5-trifluoro-phenyl)-acryloyl]-piperidin-4-yl}-ethyl)-acetamide], the IC50 at CCR2 was 0.42 µM; in experiment [1] (setting [2]), 1.1 µM.
As for `O=C(/C=C/c1cc(F)cc(F)c1)N1CCC(O)(C(O)CN2CCC(c3c[nH]c4ccccc34)CC2)CC1` (centres unmarked) [Compound 71], the IC50 at CCR2 was 0.04 µM; in experiment [1] (setting [2]), 0.2 µM.
As to `O=C(/C=C/c1cccc(F)c1)N1CCC(O)(C(O)CN2CCC(c3c[nH]c4ccccc34)CC2)CC1` (centres unmarked) [Compound 76], the IC50 was 0.47 µM at CCR2 and 0.165 µM in experiment [1] (setting [2]).
For `O=C(/C=C/c1cccc(C(F)(F)F)c1)N1CCC(O)(C(O)CN2CCC(c3c[nH]c4ccccc34)CC2)CC1` (centres unmarked) [Compound 77], the IC50 was found to be 0.5 µM at CCR2 and 0.085 µM in experiment [1] (setting [2]).
With `O=C(/C=C/c1ccsc1)N1CCC(O)(C(O)CN2CCC(c3c[nH]c4ccccc34)CC2)CC1` (centres unmarked) [Compound 79], the IC50 on CCR2 was found to be 0.81 µM; in experiment [1] (setting [2]), 7.4 µM.
With `O=C(Nc1ccc(F)c(F)c1)N1CCC(O)(C(O)CN2CCC(c3c[nH]c4ccccc34)CC2)CC1` (centres unmarked) [Compound 82, 4-hydroxy-4-{1-hydroxy-2-[4-(1H-indol-3-yl)-piperidin-1-yl]-ethyl}-piperidine-1-carboxylic acid (3,4-difluoro-phenyl)-amide], the IC50 came to 1.3 µM at CCR2 and 2.6 µM in experiment [1] (setting [2]).
The corresponding values for `OC(CN1CCC(c2c[nH]c3ccccc23)CC1)C1(O)CCN(C(=S)Nc2ccc(Cl)c(Cl)c2)CC1` (centres unmarked) [Compound 84, 4-hydroxy-4-{1-hydroxy-2-[4-(1H-indol-3-yl)-piperidin-1-yl]-ethyl}-piperidine-1-carbothioic acid (3,4-dichloro-phenyl)-amide] are 0.55 µM and 0.03 µM.
As for `O=C(/C=C/c1cc(F)c(F)c(F)c1)N1CCC(O)(C(O)CN2CCC(c3nc4ccccc4[nH]3)CC2)CC1` (centres unmarked) [Compound 87], the values for the IC50 (on CCR2; in experiment [1] (setting [2])) were 0.47 µM and 3.3 µM, respectively.
Take `COc1ccc(C2CCN(CC(O)C3CCN(C(=S)Nc4cccc(OC)c4)CC3)CC2)cc1` (centres unmarked) [Compound 96, 4-{1-hydroxy-2-[4-(4-methoxy-phenyl)-piperidin-1-yl]-ethyl}-piperidine-1-carbothioic acid (3-methoxy-phenyl)-amide]: in experiment [1] (THP-1 cells), the IC50 amounted to 13.1 µM.
Still for that read-out and setting: with `COc1ccc(C2CCN(CC(O)C3CCN(C(=S)Nc4cccc(C(F)(F)F)c4)CC3)CC2)cc1` (centres unmarked) [Compound 97, 4-{1-hydroxy-2-[4-(4-methoxy-phenyl)-piperidin-1-yl]-ethyl}-piperidine-1-carbothioic acid (3-trifluoromethyl-phenyl)-amide] the figure was 12.9 µM.
As for `COc1ccc(C2CCN(CC(O)C3CCN(C(=S)Nc4ccc(Cl)c(Cl)c4)CC3)CC2)cc1` (centres unmarked) [Compound 98, 4-{1-hydroxy-2-[4-(4-methoxy-phenyl)-piperidin-1-yl]-ethyl}-piperidine-1-carbothioic acid (3,4-dichloro-phenyl)-amide], the IC50 in experiment [1] (setting [2]) is 0.8 µM.
Take `COc1ccc(C2CCN(CC(O)C3CCN(C(=S)Nc4ccc(Br)c(F)c4)CC3)CC2)cc1` (centres unmarked) [Compound 99, 4-{1-hydroxy-2-[4-(4-methoxy-phenyl)-piperidin-1-yl]-ethyl}-piperidine-1-carbothioic acid (4-bromo-3-fluoro-phenyl)-amide]: the IC50 in experiment [1] (setting [2]) was found to be 3.5 µM.
On to `O=C(/C=C/c1cc(F)cc(F)c1)N1CCC(O)(C(O)CN2CCC(O)(c3ccc(F)cc3)CC2)CC1` (centres unmarked) [Compound 154], for which, on CCR2, the IC50 turned out to be 1.8 µM.
For the compound `O=C(Nc1cc(F)ccc1Cl)N1CCC(O)(C(O)CN2CCC(c3c[nH]c4ccc(F)cc34)CC2)CC1` (centres unmarked) [Compound 161], the IC50 at CCR2 turned out to be 8.3 µM.
Take `OC(CN1CCC(c2c[nH]c3ccc(F)cc23)CC1)C1(O)CCN(C(=S)Nc2ccc(Cl)c(Cl)c2)CC1` (centres unmarked) [Compound 162]: the IC50 at CCR2 came to 8.1 µM.
Turning to `OC(CN1CCC(c2ccc(Cl)cc2)CC1)C1(O)CCN(C(=S)Nc2cc(F)cc(F)c2F)CC1` (centres unmarked) [Compound 166, 4-{2-[4-(4-chloro-phenyl)-piperidin-1-yl]-1-hydroxy-ethyl}-4-hydroxy-piperidine-1-carbothioic acid (2,3,5-trifluoro-phenyl)-amide], the IC50 at CCR2 stood at 3.1 µM.
With `O=C(CCc1ccc(Cl)c(Cl)c1)N1CCC(O)(C(O)CN2CCC(c3c[nH]c4ccc(F)cc34)CC2)CC1` (centres unmarked) [Compound 168, 3-(3,4-dichloro-phenyl)-1-(4-{2-[4-(5-fluoro-1H-indol-3-yl)-piperidin-1-yl]-1-hydroxy-ethyl}-4-hydroxy-piperidin-1-yl)-propan-1-one], the IC50 on CCR2 came to 2.7 µM.
As for `O=C(Cc1cccc([N+](=O)[O-])c1)N1CCC(O)(C(O)CN2CCC(c3c[nH]c4ccc(N5CCOCC5)cc34)CC2)CC1` (centres unmarked) [Compound 176, 1-(4-hydroxy-4-{1-hydroxy-2-[4-(5-morpholin-4-yl-1H-indol-3-yl)-piperidin-1-yl]-ethyl}-piperidin-1-yl)-2-(3-nitro-phenyl)-ethanone], the inhibition at 25 µM at CCR2 worked out at 42%.
For `O=C(Nc1ccc(F)c(F)c1)N1CCC(O)(C(O)CN2CCC(c3c[nH]c4ccc(N5CCOCC5)cc34)CC2)CC1` (centres unmarked) [Compound 179, 4-hydroxy-4-{1-hydroxy-2-[4-(5-morpholin-4 yl-1H-indol-3-yl)-piperidin-1-yl]-ethyl}-piperidine-1-carboxylic acid (3,4-difluoro-phenyl)-amide], at CCR2, the IC50 was determined as 5.8 µM.
With `O=C(Nc1cc(F)cc(C(F)(F)F)c1)N1CCC(O)(C(O)CN2CCC(c3c[nH]c4ccc(N5CCOCC5)cc34)CC2)CC1` (centres unmarked) [Compound 180, 4-hydroxy-4-{1-hydroxy-2-[4-(5-morpholin-4-yl-1H-indol-3-yl)-piperidin-1-yl]-ethyl}-piperidine-1-carboxylic acid (3-fluoro-5-trifluoromethyl-phenyl)-amide], the IC50 on CCR2 worked out at 4.2 µM.
With `OC(CN1CCC(c2c[nH]c3ccc(N4CCOCC4)cc23)CC1)C1(O)CCN(C(=S)Nc2cc(F)cc(F)c2)CC1` (centres unmarked) [Compound 183, 4-hydroxy-4-{1-hydroxy-2-[4-(5-morpholin-4-yl-1H-indol-3-yl)-piperidin-1-yl]-ethyl}-piperidine-1-carbothioic acid (3,5-difluoro-phenyl)-amide], the inhibition at 25 µM on CCR2 turned out to be 47%.
In the case of `CC(=O)Nc1ccc2[nH]cc(C3CCN(CC(O)C4CCNCC4)CC3)c2c1` (centres unmarked) [Compound 185, N-{3-[1-(2-hydroxy-2-piperidin-4-yl-ethyl)-piperidin-4-yl]-1H-indol-5-yl}-acetamide], at CCR2, the inhibition at 25 µM stood at 54%.
